# Data taken from ChEMBL document CHEMBL3046894, “Synthesis and Herbicidal Activity of Pyrimidinyl Salicylic and Thiosalicylic Acids” (J Pestic Sci, 1996).
# The source made the active and inactive calls. No cut-off for these calls is given here.
# How the values were obtained:
# Chenopodium album [1] = assay: Pre-emergence herbicidal activity against Chenopodium album assessed as growth inhibition at 25 g a.i/10 a; type: functional, organism-based
# Abutilon theophrasti [2] = assay: Post-emergence herbicidal activity against Abutilon theophrasti (velvetleaf) assessed as mortality at 1.6 g a.i/10 a applied 11 days after germination as foliar spray; type: functional; conditions: 264 h
# Gossypium hirsutum [3] = assay: Post-emergence phytotoxicity against Gossypium hirsutum (cotton) assessed as mortality at 6.3 g a.i/10 a applied 11 days after germination as foliar spray; type: organism-based; conditions: in vivo, other, 264 h
# Cyperus iria [4] = assay: Post-emergence herbicidal activity against Cyperus iria assessed as growth inhibition at 25 g a.i/10 a applied 11 days after germination as foliar spray; type: functional, organism-based
# Gossypium hirsutum [5] = assay: Post-emergence phytotoxicity against Gossypium hirsutum (cotton) assessed as mortality at 1.6 g a.i/10 a applied 11 days after germination as foliar spray; type: organism-based; conditions: in vivo, other, 264 h
# Digitaria sanguinalis [6] = assay: Pre-emergence herbicidal activity against Digitaria sanguinalis (hairy crabgrass) assessed as growth inhibition at 25 g a.i/10 a; type: functional, organism-based
# Amaranthus retroflexus [7] = assay: Post-emergence herbicidal activity against Amaranthus retroflexus assessed as growth inhibition at 25 g a.i/10 a applied 11 days after germination as foliar spray; type: functional, organism-based
# Amaranthus retroflexus [8] = assay: Pre-emergence herbicidal activity against Amaranthus retroflexus assessed as growth inhibition at 25 g a.i/10 a; type: functional, organism-based
# Zea mays [9] = assay: (§1) Post-emergence phytotoxicity against Zea mays (maize) assessed as mortality at 1.6 g a.i/10 a applied 11 days after germination as foliar spray; type: organism-based; conditions: in vivo, other, 264 h
# Digitaria sanguinalis [10] = assay: Post-emergence herbicidal activity against Digitaria sanguinalis (hairy crabgrass) assessed as growth inhibition at 25 g a.i/10 a applied 11 days after germination as foliar spray; type: functional, organism-based
# Echinochloa crus-galli [11] = assay: Post-emergence herbicidal activity against Echinochloa crus-galli (barnyard grass) assessed as growth inhibition at 25 g a.i/10 a applied 11 days after germination as foliar spray; type: functional, organism-based
# Zea mays [12] = assay: Post-emergence phytotoxicity against Zea mays (maize) assessed as mortality at 6.3 g a.i/10 a applied 11 days after germination as foliar spray; type: organism-based; conditions: in vivo, other, 264 h
# Persicaria nodosa [13] = assay: Post-emergence herbicidal activity against Persicaria nodosa assessed as growth inhibition at 25 g a.i/10 a applied 11 days after germination as foliar spray; type: functional, organism-based
# Glycine max [14] = assay: (§2) Post-emergence phytotoxicity against Glycine max (soybean) assessed as mortality at 1.6 g a.i/10 a applied 11 days after germination as foliar spray; type: organism-based; conditions: in vivo, other, 264 h
# Echinochloa crus-galli [15] = assay: Pre-emergence herbicidal activity against Echinochloa crus-galli (barnyard grass) assessed as growth inhibition at 25 g a.i/10 a; type: functional, organism-based
# Xanthium strumarium [16] = assay: Post-emergence herbicidal activity against Xanthium strumarium (cocklebur) assessed as mortality at 1.6 g a.i/10 a applied 11 days after germination as foliar spray; type: functional; conditions: 264 h
# Persicaria nodosa [17] = assay: Pre-emergence herbicidal activity against Persicaria nodosa assessed as growth inhibition at 25 g a.i/10 a; type: functional, organism-based
# Chenopodium album [18] = assay: Post-emergence herbicidal activity against Chenopodium album assessed as growth inhibition at 25 g a.i/10 a applied 11 days after germination as foliar spray; type: functional, organism-based
# Cyperus iria [19] = assay: Pre-emergence herbicidal activity against Cyperus iria assessed as growth inhibition at 25 g a.i/10 a; type: functional, organism-based
# Gossypium hirsutum [20] = assay: Pre-emergence phytotoxicity against Gossypium hirsutum (cotton) assessed as mortality at 6.3 g a.i/10 a; type: organism-based; conditions: in vivo, other
# Abutilon theophrasti [21] = assay: Post-emergence herbicidal activity against Abutilon theophrasti (velvetleaf) assessed as mortality at 6.3 g a.i/10 a applied 11 days after germination as foliar spray; type: functional; conditions: 264 h
# Ipomoea lacunosa [22] = assay: Pre-emergence herbicidal activity against Ipomoea lacunosa assessed as mortality at 1.6 g a.i/10 a; type: functional; conditions: Ipomoea lacunosa, pre-emergence
# [23] = as §1; type: organism-based; conditions: in vivo, 1.6 g a.i/10 a
# Ipomoea lacunosa [24] = assay: Pre-emergence herbicidal activity against Ipomoea lacunosa assessed as mortality at 6.3 g a.i/10 a; type: functional; conditions: Ipomoea lacunosa, pre-emergence
# Glycine max [25] = assay: Pre-emergence phytotoxicity against Glycine max (soybean) assessed as mortality at 1.6 g a.i/10 a; type: organism-based; conditions: in vivo, other
# Xanthium strumarium [26] = assay: Pre-emergence herbicidal activity against Xanthium strumarium (cocklebur) assessed as mortality at 1.6 g a.i/10 a; type: functional; conditions: Xanthium strumarium, pre-emergence
# Zea mays [27] = assay: (§3) Pre-emergence phytotoxicity against Zea mays (maize) assessed as mortality at 1.6 g a.i/10 a; type: organism-based; conditions: in vivo, other
# [28] = as §2; type: organism-based; conditions: in vivo, 1.6 g a.i/10 a
# Glycine max [29] = assay: (§4) Pre-emergence phytotoxicity against Glycine max (soybean) assessed as mortality at 6.3 g a.i/10 a; type: organism-based; conditions: in vivo, other
# Echinochloa crus-galli [30] = assay: Post-emergence herbicidal activity against Echinochloa crus-galli (barnyard grass) assessed as mortality at 6.3 g a.i/10 a applied 11 days after germination as foliar spray; type: functional; conditions: 264 h
# Echinochloa crus-galli [31] = assay: Pre-emergence herbicidal activity against Echinochloa crus-galli (barnyard grass) assessed as mortality at 6.3 g a.i/10 a; type: functional; conditions: Echinochloa crus-galli, pre-emergence
# [32] = as §3; type: organism-based; conditions: in vivo, 1.6 g a.i/10 a, read-out: mortality
# Abutilon theophrasti [33] = assay: Pre-emergence herbicidal activity against Abutilon theophrasti (velvetleaf) assessed as mortality at 6.3 g a.i/10 a; type: functional; conditions: Abutilon theophrasti, pre-emergence
# [34] = as §4; type: organism-based; conditions: in vivo, 6.3 g a.i/10 a, read-out: mortality
# Gossypium hirsutum [35] = assay: Pre-emergence phytotoxicity against Gossypium hirsutum (cotton) assessed as mortality at 1.6 g a.i/10 a; type: organism-based; conditions: in vivo, other
Compound,growth inhibition (GI) (Chenopodium album [1]),mortality at 16 g/ha (Abutilon theophrasti [2]),Activity (Gossypium hirsutum [3]),growth inhibition (GI) (Cyperus iria [4]),Activity (Gossypium hirsutum [5]),growth inhibition (GI) (Digitaria sanguinalis [6]),growth inhibition (GI) (Amaranthus retroflexus [7]),growth inhibition (GI) (Amaranthus retroflexus [8]),Activity (Zea mays [9]),growth inhibition (GI) (Digitaria sanguinalis [10]),growth inhibition (GI) (Echinochloa crus-galli [11]),growth inhibition (GI) (Persicaria nodosa [13]),Activity (Glycine max [14]),growth inhibition (GI) (Echinochloa crus-galli [15]),growth inhibition (GI) (Persicaria nodosa [17]),growth inhibition (GI) (Chenopodium album [18]),growth inhibition (GI) (Cyperus iria [19]),Activity (Gossypium hirsutum [20]),mortality at 63 g/ha (Abutilon theophrasti [21]),mortality at 16 g/ha (Ipomoea lacunosa [22]),further results
COc1cc(OC)nc(Oc2cccc(N)c2C(=O)O)n1,Active,< 5%,Toxic,Active,Non-toxic,inactive,Active,Active,Toxic,Active,Active,Active,Toxic,inactive,inactive,Active,Active,,,,Activity (Zea mays [12]): Toxic; mortality at 16 g/ha (Xanthium strumarium [16]): < 5%
CCOc1cccc(Oc2nc(OC)cc(OC)n2)c1C(=O)O,Active,,Toxic,Active,Non-toxic,Active,Active,Active,,Active,Active,Active,,Active,Active,Active,Active,Non-toxic,> 90%,< 5%,mortality at 264 h [23]: > 90%; mortality at 63 g/ha (Ipomoea lacunosa [24]): < 5%; Activity (Glycine max [25]): Non-toxic; mortality at 16 g/ha (Xanthium strumarium [26]): < 5%; Activity (Zea mays [27]): Toxic; mortality at 264 h [28]: > 90%; Activity (Glycine max [29]): Toxic
COc1cc(OC)nc(Oc2cccc(F)c2C(=O)O)n1,Active,> 90%,Toxic,Active,Toxic,Active,Active,Active,Toxic,Active,Active,Active,Toxic,Active,Active,Active,Active,Toxic,> 90%,< 5%,mortality at 63 g/ha (Echinochloa crus-galli [30]): > 90%; Activity (Glycine max [25]): Toxic; mortality at 63 g/ha (Echinochloa crus-galli [31]): > 90%; mortality [32]: > 90%; mortality at 63 g/ha (Abutilon theophrasti [33]): > 90%; mortality [34]: > 90%; Activity (Gossypium hirsutum [35]): Non-toxic
